Where two headings read alike, the source gives them in different places.
Experiments:
T2MycNick cells = test: Testing compounds for their ability of restoring contact inhibition (vacuolation, cell density); type: cell-based, murine; conditions: for minimal effective concentration: T2MycNick cells grown beyond confluence, 7-14 days; for cell density reduction (in words) / vacuolation (in words): compound alone; for vacuolation (in words): up to 10 μM
Procedure: Exponentially growing MycNick cells were passaged into 24-well plates at a final confluence of 90% and were allowed to attach for 48 hours before being exposed to a cortisol analog in the presence or absence of a calcineurin inhibitor. After the initiation of treatment, the cells were allowed to grow beyond confluence for 7 days before being subjected to morphological analysis and cell density. An inverted tissue culture microscope (Leica) was used to document vacuoles in live cells. Cell density was evaluated under an EVOS FL Auto microscope (Thermo Fisher) after fixation of the treated cells with 4% paraformaldehyde (PFA) in the presence of detergent 0.5% Triton X-100 and subsequently staining of DNA with 5 μg/ml of Propidium Iodide (PI) in the presence of 5 μg/ml of Ribonuclease A from bovine pancreas (RNase A) (Sigma, Cat. # R6513-50MG).
Exponentially growing murine cells expressing Myc-Nick (T2MycNick cells) were passaged into 24-well plates at a final confluence of 20% and were allowed to attach overnight before being exposed to a test compound at a concentration of 10 μM. […] The cells were subjected to daily analysis of viability and morphology under an inverted tissue culture microscope or GE InCell Analyzer 2000. Cell density was documented after staining of DNA with PI 7-10 days after the initiation of treatment.

MycNick cells = test: Combination treatment with Hydrocortisone: modulation of HC-induced vacuolation, cell density reduction and CIR effect; type: cell-based, murine; conditions: for sensitization to induction of vacuolation elicited by Hydrocortisone: 10 days, FIG. 16: Cyclosporin A […], Hydrocortisone 0.3 μM; for Cell density reduction by Hydrocortisone / Vacuolation by Hydrocortisone: Combination treatment with Hydrocortisone for 7 days; for HC-triggered vacuolation in presence of the compound: added to HC
Procedure: Exponentially growing MycNick cells were passaged into 24-well plates at a final confluence of 90% and were allowed to attach for 48 hours before being exposed to a cortisol analog in the presence or absence of a calcineurin inhibitor. […] An inverted tissue culture microscope (Leica) was used to document vacuoles in live cells. Cell density was evaluated under an EVOS FL Auto microscope (Thermo Fisher) after fixation of the treated cells with 4% paraformaldehyde (PFA) in the presence of detergent 0.5% Triton X-100 and subsequently staining of DNA with 5 μg/ml of Propidium Iodide (PI) in the presence of 5 μg/ml of Ribonuclease A from bovine pancreas (RNase A) (Sigma, Cat. # R6513-50MG).
The threshold concentration that was used to elicit no less than 50% of reduction in the cell density was determined. So was the minimal effective concentration that could induce vacuolation to an extent that covered no less than 10% of a random field documented under a bright field microscope. Quantification of the area with vacuolation, multilayer zones or multilayer zones was performed with the Image J software. More than 10 random fields were chosen for quantification for each data point in each of two independent experiments.
A chemical library for enhancers of the CIR effect of HC in MycNick cells was screened.

[1] = Mus musculus, PI staining, read-out: Conc that reduces > 50% in the cell density
[2] = Mus musculus, vacuolation covering no less than 10% of a random field, read-out: Min. effective conc. that elicits vacuolation
[3] = PI staining, read-out: Conc that reduces > 50% in the cell density
[4] = vacuolation covering no less than 10% of a random field, read-out: Min. effective conc. that elicits vacuolation

CCC(=O)OCC(=O)[C@@]1(OC(=O)CC)[C@@H](C)C[C@H]2[C@@H]3CCC4=CC(=O)C=C[C@]4(C)[C@@]3(Cl)[C@@H](O)C[C@@]21C [CI019, Beclomethasone dipropionate]
minimal effective concentration (T2MycNick cells; [1]): 2.5 µM
minimal effective concentration (T2MycNick cells; [2]): 0.625 µM

CC1(C)O[C@@H]2C[C@H]3[C@@H]4CCC5=CC(=O)C=C[C@]5(C)[C@H]4[C@@H](O)C[C@]3(C)[C@]2(C(=O)CO)O1 [CI020, Desonide]
minimal effective concentration (T2MycNick cells; [1]): 2.5 µM
minimal effective concentration (T2MycNick cells; [2]): 0.625 µM

CC1(C)O[C@@H]2C[C@H]3[C@@H]4C[C@H](F)C5=CC(=O)C=C[C@]5(C)[C@@]4(F)[C@@H](O)C[C@]3(C)[C@]2(C(=O)CO)O1 [CI021, Fluocinolone Acetonide]
minimal effective concentration (T2MycNick cells; [1]): 2.5 µM
minimal effective concentration (T2MycNick cells; [2]): 0.625 µM

CCC(=O)O[C@]1(C(=O)SCF)[C@H](C)C[C@H]2[C@@H]3C[C@H](F)C4=CC(=O)C=C[C@]4(C)[C@@]3(F)[C@@H](O)C[C@@]21C [CI022, Fluticasone propionate]
minimal effective concentration (T2MycNick cells; [1]): 2.5 µM
minimal effective concentration (T2MycNick cells; [2]): 0.625 µM

C[C@@H]1C[C@H]2[C@@H]3CCC4=CC(=O)C=C[C@]4(C)[C@@]3(Cl)[C@@H](O)C[C@]2(C)[C@@]1(OC(=O)c1ccco1)C(=O)CCl [CI023, Mometasone Furoate]
minimal effective concentration (T2MycNick cells; [1]): 2.5 µM
minimal effective concentration (T2MycNick cells; [2]): 0.625 µM

C[C@]12C[C@H](O)[C@H]3[C@@H](CCC4=CC(=O)CC[C@@]43C)[C@@H]1CC[C@@H]2C(=O)CO [CI028, Corticosterone]
minimal effective concentration (T2MycNick cells; [1]): 2.5 µM
minimal effective concentration (T2MycNick cells; [2]): 0.625 µM

C#C[C@]1(OC(C)=O)CC[C@H]2[C@@H]3CCC4=C[C@@H](OC(C)=O)CC[C@@H]4[C@H]3CC[C@@]21C [CI030, Ethynodiol diacetate]
minimal effective concentration (T2MycNick cells; [1]): 5 µM
minimal effective concentration (T2MycNick cells; [2]): > 10 µM
cell density reduction (in words) (T2MycNick cells): failed to elicit vacuolation or reduce cell density
vacuolation (in words) (T2MycNick cells): failed to elicit vacuolation

CC(=O)O[C@]1(C(C)=O)CC[C@H]2[C@@H]3C[C@H](C)C4=CC(=O)CC[C@]4(C)[C@H]3CC[C@@]21C [CI031, Medroxyprogesterone acetate]
minimal effective concentration (T2MycNick cells; [3]): 2.5 µM
minimal effective concentration (T2MycNick cells; [4]): 2.5 µM

C#C[C@]1(O)CC[C@H]2[C@@H]3CCC4=CC(=O)CC[C@]4(C)[C@H]3CC[C@@]21C [CI032, Ethisterone]
minimal effective concentration (T2MycNick cells; [1]): 10 µM
minimal effective concentration (T2MycNick cells; [2]): > 10 µM
cell density reduction (in words) (T2MycNick cells): failed to elicit vacuolation or reduce cell density
vacuolation (in words) (T2MycNick cells): failed to elicit vacuolation

C[C@]12CCC3=C4CCC(=O)C=C4CC[C@H]3[C@@H]1CC[C@@]2(O)CC#N [CI033, Dienogest]
minimal effective concentration (T2MycNick cells; [1]): 10 µM
minimal effective concentration (T2MycNick cells; [2]): > 10 µM
cell density reduction (in words) (T2MycNick cells): failed to elicit vacuolation or reduce cell density
vacuolation (in words) (T2MycNick cells): failed to elicit vacuolation

CC[C@@H]1/C=C(\C)C[C@H](C)C[C@H](OC)[C@H]2O[C@@](O)(C(=O)C(=O)N3CCCC[C@H]3C(=O)O[C@H](/C(C)=C/[C@@H]3CC[C@@H](O)[C@H](OC)C3)[C@H](C)[C@@H](O)CC1=O)[C@H](C)C[C@@H]2OC [CI034, Ascomycin]
sensitization to induction of vacuolation elicited by Hydrocortisone (MycNick cells): sensitizes
Cell density reduction by Hydrocortisone (MycNick cells): Enhanced
Vacuolation by Hydrocortisone (MycNick cells): Enhanced
vacuolation (in words) (T2MycNick cells): did not elicit vacuolation

C[C@@H]1C[C@H]2[C@@H]3CCC4=CC(=O)C=C[C@]4(C)[C@@]3(F)[C@@H](O)C[C@]2(C)[C@@]1(O)C(=O)COP(=O)([O-])[O-].[Na+].[Na+] [CI039, Dexamethasone 21-phosphate disodium salt]
minimal effective concentration (T2MycNick cells; [3]): 2.5 µM
minimal effective concentration (T2MycNick cells; [4]): 0.625 µM

CC[C@@H]1/C=C(\C)C[C@H](C)C[C@H](OC)[C@H]2O[C@@](O)(C(=O)C(=O)N3CCCC[C@H]3C(=O)O[C@H](/C(C)=C/[C@@H]3CC[C@H](Cl)[C@H](OC)C3)[C@H](C)[C@@H](O)CC1=O)[C@H](C)C[C@@H]2OC [CI040, Pimecrolimus]
sensitization to induction of vacuolation elicited by Hydrocortisone (MycNick cells): sensitizes
Cell density reduction by Hydrocortisone (MycNick cells): Enhanced
Vacuolation by Hydrocortisone (MycNick cells): Enhanced
vacuolation (in words) (T2MycNick cells): did not elicit vacuolation

CC1(C)O[C@@H]2C[C@H]3[C@@H]4CCC5=CC(=O)C=C[C@]5(C)[C@@]4(F)[C@@H](O)C[C@]3(C)[C@]2(C(=O)CO)O1 [CI041, Triamcinolone acetonide]
minimal effective concentration (T2MycNick cells; [1]): 2.5 µM
minimal effective concentration (T2MycNick cells; [2]): 0.625 µM

C[C@]12C=CC(=O)C=C1CC[C@@H]1[C@@H]2C(=O)C[C@@]2(C)[C@H]1CC[C@]2(O)C(=O)CO [CI042, Prednisone]
minimal effective concentration (T2MycNick cells; [1]): 2.5 µM
minimal effective concentration (T2MycNick cells; [2]): > 10 µM

CC(=O)[C@@]1(O)CC[C@H]2[C@@H]3C[C@H](C)C4=CC(=O)C=C[C@]4(C)[C@@]3(F)[C@@H](O)C[C@@]21C [CI043, Fluorometholone]
minimal effective concentration (T2MycNick cells; [1]): 2.5 µM
minimal effective concentration (T2MycNick cells; [2]): 0.625 µM

C=CC[C@@H]1/C=C(\C)C[C@H](C)C[C@H](OC)[C@H]2O[C@@](O)(C(=O)C(=O)N3CCCC[C@H]3C(=O)O[C@H](/C(C)=C/[C@@H]3CC[C@@H](O)[C@H](OC)C3)[C@H](C)[C@@H](O)CC1=O)[C@H](C)C[C@@H]2OC [CI046, Tacrolimus]
sensitization to induction of vacuolation elicited by Hydrocortisone (MycNick cells): sensitizes
Cell density reduction by Hydrocortisone (MycNick cells): Enhanced
Vacuolation by Hydrocortisone (MycNick cells): Enhanced
vacuolation (in words) (T2MycNick cells): did not elicit vacuolation

C[C@]12C=CC(=O)C=C1CC[C@H]1[C@@H]3C[C@@H](O)[C@](O)(C(=O)CO)[C@@]3(C)C[C@H](O)[C@@]12F [CI047, Triamcinolone]
minimal effective concentration (T2MycNick cells; [1]): 2.5 µM
minimal effective concentration (T2MycNick cells; [2]): 0.625 µM

CC(=O)OCC(=O)[C@@]12OC(C)(C)O[C@@H]1C[C@H]1[C@@H]3C[C@H](F)C4=CC(=O)C=C[C@]4(C)[C@@]3(F)[C@@H](O)C[C@@]12C [CI048, Fluocinonide]
minimal effective concentration (T2MycNick cells; [1]): 2.5 µM
minimal effective concentration (T2MycNick cells; [2]): 0.625 µM

C[C@]12CCC(=O)C=C1CC[C@@H]1[C@@H]2CC[C@@]2(C)[C@H]1CC[C@]2(O)C(=O)CO [CI049, Cortodoxone]
minimal effective concentration (T2MycNick cells; [1]): 10 µM
minimal effective concentration (T2MycNick cells; [2]): 5 µM

CC(=O)OCC(=O)[C@@]1(O)CC[C@H]2[C@@H]3CCC4=CC(=O)CC[C@]4(C)[C@H]3[C@@H](O)C[C@@]21C [HC003, Hydrocortisone 21-acetate]
minimal effective concentration (T2MycNick cells; [3]): 2 µM
minimal effective concentration (T2MycNick cells; [4]): >10 µM

CCCC(=O)O[C@]1(C(=O)CO)CC[C@H]2[C@@H]3CCC4=CC(=O)CC[C@]4(C)[C@H]3[C@@H](O)C[C@@]21C [HC004, Hydrocortisone 17-Butyrate]
minimal effective concentration (T2MycNick cells; [3]): 10 µM
minimal effective concentration (T2MycNick cells; [4]): >10 µM

CC(=O)OCC(=O)[C@@]1(O)[C@H](C)C[C@H]2[C@@H]3CCC4=CC(=O)C=C[C@]4(C)[C@@]3(F)[C@@H](O)C[C@@]21C [HC005, Dexamethasone 21-acetate]
minimal effective concentration (T2MycNick cells; [3]): 10 µM
minimal effective concentration (T2MycNick cells; [4]): >10 µM

CC#C[C@]1(O)CC[C@H]2[C@@H]3CCC4=CC(=O)CCC4=C3[C@@H](c3ccc(N(C)C)cc3)C[C@@]21C [Mifepristone]
CIR effect of HC in presence of antagonist (MycNick cells; 5 μM of Mifepristone): completely blocked
contact inhibition restoration (CIR) activity (T2MycNick cells; high-density cells): failed to elicit

Cn1c(=O)cc(N2CCC[C@@H](N)C2)n(Cc2ccccc2C#N)c1=O [alogliptin]
HC-triggered vacuolation in presence of the compound (MycNick cells): failed to inhibit

CC#CCn1c(N2CCC[C@@H](N)C2)nc2c1c(=O)n(Cc1nc(C)c3ccccc3n1)c(=O)n2C [linagliptin]
HC-triggered vacuolation in presence of the compound (MycNick cells): failed to inhibit
